Like-named read-outs stand apart in the source and are kept apart here.
Experiments:
Assay type in all cases: cell-based
[1] = molecular target: IKZF2 (Helios) (Homo sapiens, UniProt Q96SW2+Q9UKS7); test: Screening of DC50 (nM) and Dmax (%) using WB-IKZF2 cell line (Western blot); design: endogenous in cells; conditions: 6 hours; for DC50: read-out: WB-IKZF2 DC 50
[2] = molecular target: Helios (IKZF2) (Homo sapiens, UniProt Q96SW2+Q9UKS7); test: Screening of Helios protein degraders using Nano-Glo HiBiT cell line (HiBiT-IKZF2); conditions: 6 hours, HiBiT-Helios knock-in Jurkat cells; for remaining activity at 10 µM: compound 10 μM, read-out: HiBiT-IKZF2 Residual amount of Helios (%) 10 μM
[3] = molecular target: T1, Helios protein (Homo sapiens, UniProt Q96SW2+Q9UKS7); test: Measurement of Helios protein degradation using Western blot analysis in Jurkat cells (FIG. 1); conditions: 6 hours
T1 construct: endogenous in cells; host or cells: Jurkat cells
Procedure: To confirm the degradation of Helios protein by the degrader, Western blot analysis was performed. Jurkat cells (5×10^6) in complete medium were treated with serial dilutions of the compound at 37° C. in a CO2 incubator for 6 hours.
After harvesting the cells, they were lysed in RIPA buffer (LPS solution, CRB002) containing a protease inhibitor cocktail (Roche). The lysates were incubated on ice for 30 minutes with vortexing every 10 minutes, followed by centrifugation at 13,000 rpm for 10 minutes at 4° C. to isolate the cell lysates. The lysates were quantified using the Bradford assay (Bio-Rad, 5000006).
30 μg of the lysates were separated by 8% SDS-polyacrylamide gel electrophoresis (SDS-PAGE), and the proteins were transferred to a nitrocellulose (NC) membrane (Amersham, 10600002), followed by incubation with primary antibodies at 4° C. for 18 hours. […]
After washing with 1×TBST for 30 minutes, protein expression was visualized using Pierce ECL Western blotting substrate (Thermo Fisher, 32106), and the images were acquired using a chemiluminescence imaging system (GE Healthcare, AI680). The resulting images were quantified using ImageJ software. The results of Helios protein degradation measured with compound 39 of the present disclosure and comparative compound DKY709 are shown in FIG. 1.

[4] = molecular target: IKZF2 over IKZF1, IKZF3, and IKZF4 (Homo sapiens, UniProt Q96SW2+Q9UKS7); test: Selective degradation of IKZF2 over IKZF1, IKZF3 and IKZF4

Helios (IKZF2), sequence (Q9UKS7 whole entry): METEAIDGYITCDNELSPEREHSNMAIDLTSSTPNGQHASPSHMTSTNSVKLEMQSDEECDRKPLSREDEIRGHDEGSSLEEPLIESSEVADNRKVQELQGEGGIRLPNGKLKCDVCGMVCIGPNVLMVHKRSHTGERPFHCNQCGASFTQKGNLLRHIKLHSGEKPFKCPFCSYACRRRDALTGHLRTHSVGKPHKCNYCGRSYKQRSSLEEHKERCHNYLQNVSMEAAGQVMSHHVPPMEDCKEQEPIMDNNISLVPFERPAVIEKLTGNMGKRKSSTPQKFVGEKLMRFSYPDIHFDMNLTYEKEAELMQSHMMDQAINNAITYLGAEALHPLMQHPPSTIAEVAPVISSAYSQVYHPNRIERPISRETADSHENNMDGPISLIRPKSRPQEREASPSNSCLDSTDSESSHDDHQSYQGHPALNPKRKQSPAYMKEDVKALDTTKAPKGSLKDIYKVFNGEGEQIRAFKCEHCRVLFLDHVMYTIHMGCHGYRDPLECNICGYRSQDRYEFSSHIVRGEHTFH
Helios (IKZF2), sequence (Q96SW2 whole entry): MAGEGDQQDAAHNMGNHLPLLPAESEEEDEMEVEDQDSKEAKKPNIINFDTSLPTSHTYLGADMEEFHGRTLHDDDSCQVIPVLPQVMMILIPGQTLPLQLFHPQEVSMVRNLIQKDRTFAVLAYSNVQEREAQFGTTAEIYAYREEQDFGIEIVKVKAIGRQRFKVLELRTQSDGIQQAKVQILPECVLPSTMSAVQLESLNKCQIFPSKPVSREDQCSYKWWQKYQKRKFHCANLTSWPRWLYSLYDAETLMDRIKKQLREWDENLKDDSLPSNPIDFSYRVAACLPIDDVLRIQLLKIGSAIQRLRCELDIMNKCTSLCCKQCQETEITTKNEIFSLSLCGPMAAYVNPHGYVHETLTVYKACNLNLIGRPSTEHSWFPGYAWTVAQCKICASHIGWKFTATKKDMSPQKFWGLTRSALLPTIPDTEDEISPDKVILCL
Helios (IKZF2), sequence (Q16531 whole entry partner): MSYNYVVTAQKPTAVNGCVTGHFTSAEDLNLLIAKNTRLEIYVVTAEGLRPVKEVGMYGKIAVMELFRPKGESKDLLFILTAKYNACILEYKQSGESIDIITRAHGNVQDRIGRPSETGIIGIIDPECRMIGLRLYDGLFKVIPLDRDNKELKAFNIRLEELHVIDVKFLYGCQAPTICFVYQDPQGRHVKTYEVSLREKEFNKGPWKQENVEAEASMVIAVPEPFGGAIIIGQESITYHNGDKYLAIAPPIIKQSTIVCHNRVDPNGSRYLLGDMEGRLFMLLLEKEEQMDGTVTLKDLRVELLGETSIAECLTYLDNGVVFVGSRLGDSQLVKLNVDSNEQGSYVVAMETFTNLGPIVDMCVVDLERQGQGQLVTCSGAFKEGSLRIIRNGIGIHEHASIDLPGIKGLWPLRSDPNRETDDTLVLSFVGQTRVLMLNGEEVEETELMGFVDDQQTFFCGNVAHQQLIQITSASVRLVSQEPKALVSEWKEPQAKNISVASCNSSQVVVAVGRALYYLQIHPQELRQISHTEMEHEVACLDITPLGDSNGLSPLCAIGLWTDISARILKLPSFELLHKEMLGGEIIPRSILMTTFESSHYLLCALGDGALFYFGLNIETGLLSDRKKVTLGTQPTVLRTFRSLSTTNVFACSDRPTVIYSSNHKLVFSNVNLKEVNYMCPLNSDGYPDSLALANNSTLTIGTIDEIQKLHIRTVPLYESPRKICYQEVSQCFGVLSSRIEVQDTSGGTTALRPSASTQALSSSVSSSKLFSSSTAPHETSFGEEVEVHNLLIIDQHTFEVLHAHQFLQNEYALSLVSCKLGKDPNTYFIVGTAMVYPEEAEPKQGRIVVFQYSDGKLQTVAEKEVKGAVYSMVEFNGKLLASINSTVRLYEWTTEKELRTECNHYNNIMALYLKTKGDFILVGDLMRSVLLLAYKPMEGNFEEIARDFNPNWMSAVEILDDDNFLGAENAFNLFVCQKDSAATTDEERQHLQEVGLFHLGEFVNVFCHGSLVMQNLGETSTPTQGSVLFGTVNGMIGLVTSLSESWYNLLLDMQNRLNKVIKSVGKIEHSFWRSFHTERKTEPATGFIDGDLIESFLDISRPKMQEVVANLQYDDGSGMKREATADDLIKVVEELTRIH
IKZF2 (Helios), sequence (Q9UKS7 whole entry): as the sequence (Q9UKS7 whole entry) above
IKZF2 (Helios), sequence (Q96SW2 whole entry): as the sequence (Q96SW2 whole entry) above
IKZF2 (Helios), sequence (Q16531 whole entry partner): as the sequence (Q16531 whole entry partner) above
T1 sequence (Q9UKS7 whole entry): as the sequence (Q9UKS7 whole entry) above
T1 sequence (Q96SW2 whole entry): as the sequence (Q96SW2 whole entry) above
T1 sequence (Q16531 whole entry partner): as the sequence (Q16531 whole entry partner) above

Dmax [1] | DC50 ([1]; numeric value) | remaining activity at 1 µM ([2]; compound 1 μM, read-out: HiBiT-IKZF2 Residual amount of Helios (%) 1 μM) | remaining activity at 10 µM [2] | Helios protein degradation activity compared to comparative compound 1 (DKY709) [3] | DC50 ([1]; class symbols) | Compound | selective degradation activity for IKZF2 over IKZF1, IKZF3, and IKZF4 [4]
100% | 0.19 nM | 6.6% | 5.5% | more than 1,000 fold | – | Cc1c(C(=O)N2CCC(c3ccc4c(c3)CN(C3CCC(=O)NC3=O)C4=O)CC2)[nH]c2cc(Cl)ccc12 (centres unmarked) [Compound 39, 3-(5-(1-(6-chloro-3-methyl-1H-indole-2-carbonyl)piperidin-4-yl)-1-oxoinsoindolin-2-yl)piperidine-2,6-dione] | –
– | – | – | 7.4% | – | 10 to 100 nM | O=C1CCC(N2Cc3cc(C4CCN(C(=O)c5[nH]c6cc(Cl)ccc6c5CN5CCOCC5)CC4)ccc3C2=O)C(=O)N1 (centres unmarked) [Compound 82, 3-(5-(1-(6-chloro-3-(morpholinomethyl)-1H-indole-2-carbonyl)piperidin-4-yl)-1-oxoinsoindolin-2-yl)piperidine-2,6-dione] | selective degradation activity for IKZF2 over IKZF1, IKZF3, and IKZF4

From patent US20260216164A1, “INDOLE COMPOUND DECOMPOSING IKZF2, AND USE THEREOF” (KOREA RESEARCH INSTITUTE OF CHEMICAL TECHNOLOGY, priority 2023, published 2026)
